Measurements published in patent publication EP0064445A1, “N-substituted 2,4-dialkoxybenzene sulfon amides” (CHOAY S.A., priority 1981, dated 1982).

Tested on: souris SWISS
Assay: Interaction with pentobarbital: pentobarbital sleep time in mice
Type: in vivo
Settings: 200 mg/kg oral; for Temps de sommeil (pentobarbital): male SWISS mice, lots of 10, 60 min before pentobarbital 40 mg/kg i.p.; for effet sur le sommeil au pentobarbital: result in words, mice
Source text: Les essais sont réalisés sur des souris SWISS, EOPS de sexe mâle, pesant de 20 à 24 g, en provenance du centre d'élevage de LE GENEST.
Les animaux sont acclimatés au moins 8 jours à l'animalerie du laboratoire avant les essais.
Les lots sont de 10 souris par test et par produit.
A titre de produits de référence, pour effectuer les essais témoins, on a utilisé les trois substances suivantes : • - N-[(éthyl-1 pyrrolidinyl-2) méthy17méthoxy-2 sulfamoyl-5 benzamide connue sous la désignation sulpiride; • - N-[(éthyl-1 pyrrolidinyl-2)méthy17méthoxy-2 éthylsulfonyl-5 benzamide connue sous la désignation sultopride; • - N-(diéthylamino-2 éthyl) méthoxy-2 méthylsulfonyl-5 benzamide connue sous la désignation tiapride.
Les composés selon l'invention et les substances de référence sont administrés en suspension aqueuse dans l'eau ordinaire à 3% en gomme arabique pour la voie orale (tests d'interactions avec les barbituriques).
Le réactif pharmacologique à savoir le pentobarbital est administré en solution dans du soluté isotonique de NaCl.
Les volumes administrés sont de 0,5 ml d'une solution à 1,6 g/1 pour 20 g de poids corporel par voie intrapérito- néale (40 mg/kg).
Pour effectuer ces essais, on administre à des lots de 10 souris SWISS mâles les composés selon l'invention ou les produits de référence (à savoir sulpiride, sultopride ou tiapride) par voie orale à raison de 200 mg/kg. 60 minutes après l'ingestion des composés selon l'invention ou des produits de référence, on administre aux animaux le pentobarbital sous forme sodique tel que celui commercialisé sous la marque NEMBUTAL. On mesure ensuite : • - le temps d'endormissement, • - le temps de sommeil, et on détermine le paurcentage de variations en plus ou en moins du temps de sommeil. Les résultats de ces essais figurent dans le tableau II suivant.

SMILES | Temps de sommeil (pentobarbital) | effet sur le sommeil au pentobarbital
COc1cc(OC)c(S(=O)(=O)NCCN2CCCC2)cc1Cl [Produit 882] | 176 ± 21 mn | 
COc1cc(OC)c(S(=O)(=O)NCCN2CCCCC2)cc1Cl [Produit 883] | 176 ± 12 mn | 
COc1cc(OC)c(S(=O)(=O)NCCN2CCOCC2)cc1Cl [Produit 884] | 150 ± 24 mn | 
COc1cc(OC)c(S(=O)(=O)NCCCN2CCCCC2)cc1Cl [Produit 888] | 140 ± 20 mn | 
COc1cc(OC)c(S(=O)(=O)NCCCN2CCOCC2)cc1Cl [Produit 889] | 156 ± 15 mn | 
COc1cc(OC)c(S(=O)(=O)NCCN2CCCC2)cc1Br [Produit 926] | 168 ± 30 mn | 
COc1cc(OC)c(S(=O)(=O)NCCN2CCCCC2)cc1Br [Produit 927] | 169 ± 26 mn | 
COc1cc(OC)c(S(=O)(=O)NCCN2CCOCC2)cc1Br [Produit 928] | 165 ± 24 mn | 
COc1cc(OC)c(S(=O)(=O)NCCCN2CCCCC2)cc1Br [Produit 932] | 142 ± 15 mn | 
COc1cc(OC)c(S(=O)(=O)NCCCN2CCOCC2)cc1Br [Produit 933] | 180 ± 32 mn | 
CCN1CCCC1CNC(=O)c1cc(S(N)(=O)=O)ccc1OC (stereo not shown) [sulpiride, reference compound] |  | tantôt potentialisateur, tantôt antagoniste
CCN1CCCC1CNC(=O)c1cc(S(=O)(=O)CC)ccc1OC (stereo not shown) [sultopride, reference compound] |  | potentialisateurs
CCN(CC)CCNC(=O)c1cc(S(C)(=O)=O)ccc1OC [tiapride, N-(diéthylamino-2 éthyl) méthoxy-2 méthylsulfonyl-5 benzamide, reference compound] |  | potentialisateurs
